We go through three molecules from article PMC7993394 (Journal of Enzyme Inhibition and Medicinal Chemistry, 2021).

The target in the experiment is T1, BpHldC (Burkholderia pseudomallei, UniProt Q63XZ4).
T1 construct: gene BPSL0395
T1 sequence (Q63XZ4 1-161 limits assumed): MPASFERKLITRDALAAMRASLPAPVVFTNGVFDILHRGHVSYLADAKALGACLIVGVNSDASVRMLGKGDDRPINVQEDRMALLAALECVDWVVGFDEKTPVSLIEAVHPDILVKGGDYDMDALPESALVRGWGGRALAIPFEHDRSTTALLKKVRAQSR
Description: biochemical.
`CCOC(=O)c1sc(NC(=O)CSc2nnc(-c3ccc(Cl)cc3)o2)c(C#N)c1C` [compound 7933420, ethyl 5-[({[5–(4-chlorophenyl)-1,3,4-oxadiazol-2-yl]thio}acetyl)amino]-4-cyano-3-methyl-2-thiophene carboxylate] registered an IC50 of 17.5 µM.

Regarding `CCOC(=O)c1sc(NC(=O)CSc2nnc(Cc3ccccc3)o2)c(C#N)c1C` [compound 7929959, ethyl 5-({[(5-benzyl-1,3,4-oxadiazol-2-yl)thio]acetyl}amino)-4-cyano-3-methyl-2-thiophenecarboxylate], the midpoint of inhibition, the IC50, lay at 10.9 µM.

`CCOC(=O)c1sc(NC(=O)CSc2nnc(-c3ccccc3OCC)o2)c(C#N)c1C` [compound 7991890, ethyl 4-cyano-5-[({[5–(2-ethoxyphenyl)-1,3,4-oxadiazol-2-yl]thio}acetyl)amino]-3-methyl-2-thiophenecarboxylate]: it took 47.1 µM to reach half-maximal inhibition (IC50).
